Data set [1] concerns Mycobacterium tuberculosis (strain H37Rv). The data set can be described thus: LORA minimum inhibitory concentration assay (low-oxygen/non-replicating). As to conditions: M.tb H37Rv, 90% inhibition of growth.
Data set [2] has as its system VERO green monkey kidney cells. The data set can be described thus: VERO mammalian cell toxicity assay. It counts as cell-based. The following applies: inhibition of growth of VERO green monkey kidney epithelial cells; for IC50: Chlorocebus sabaeus.
In data set [3] the test system is Mycobacterium tuberculosis (strain H37Rv). The data set can be described thus: MABA minimum inhibitory concentration assay (aerobic/replicating). As to conditions: M.tb H37Rv, aerobic/replicating, 90% inhibition of growth; for MIC90: Mycobacterium tuberculosis. It is filed as cell-based.
A short description of data set [4]: Microsomal stability, human liver microsomes. It is filed as in vitro ADME. As to conditions: pH 7.4; for microsomal CLint at 1 μM: human liver microsomes, read-out: HLM Clint(mic). How it is done:
(§1) Assays were performed by WuXi AppTec (Shanghai) Co., Ltd. The test compounds (Table 4) (at 1 μM) were incubated at 37 °C with liver microsomes from human or CD-1 mice in the presence of a NADPH regenerating system and phosphate buffer (100 mM, pH 7.4) at 0.5 mg/mL microsomal protein (the positive controls were testosterone, propafenone, and diclofenac). Samples were removed at time intervals of 0, 5, 10, 20, 30, and 60 min and immediately mixed with cold CH3CN (containing 0.1 μg/mL of tolbutamide as an internal standard) and then centrifuged prior to analysis by LCMS/MS.
(In general: Liver microsomes are vesicles of endoplasmic reticulum, rich in cytochrome P450 enzymes.)

Data set [5] in a line: Microsomal stability, mouse liver microsomes. It counts as in vitro ADME. As to conditions: for CLint scaled at 1 μM / half-life at 1 μM: CD-1, mouse, microsomes, pH 7.4; for microsomal CLint at 1 μM: CD-1, pH 7.4, mouse liver microsomes, read-out: MLM Clint(mic). How it is done:
as §1

The mark [6] stands for this setting: human/mouse liver microsomes not distinguished, read-out: T½ values (microsomal stability).

Converted amounts (≈) assume the structure as drawn. Where only a bound is given, the exact number is not on record here.

The term IC50 denotes the midpoint of a concentration-inhibition curve. As a reminder, the MIC90 is the lowest concentration that inhibits either 90% of growth or 90% of the strains tested, depending on the study. One may read the melting point as the temperature of the solid-liquid transition. As a reminder, the CLint scaled is the capacity of the preparation to metabolise the compound, expressed as a volume cleared per time.

Consider `C=Cc1cc(NCc2ccccn2)n2ncc(-c3ccc(F)cc3)c2n1` [Compound 24, 3-(4-Fluorophenyl)-N-(pyridin-2-ylmethyl)-5-vinylpyrazolo[1,5-a]pyrimidin-7-amine], for which the “MIC90 LORA” value in data set [1] is recorded as 0.47 µg/mL (≈ 1.36 µM). Moreover, in data set [2], the IC50 is 17.2 µg/mL (≈ 49.8 µM). In data set [3], this compound showed an MIC90 of 1.48 µg/mL (≈ 4.29 µM).
On to `Fc1ccc(-c2cnn3c(NCc4ncccc4F)cc(-c4ccccc4)nc23)cc1` [Compound 70, 3-(4-Fluorophenyl)-N-((3-fluoropyridin-2-yl)methyl)-5-phenylpyrazolo[1,5-a]pyrimidin-7-amine], for which the melting point fell in the range of 165 to 168 °C. The “MIC90 LORA” value in data set [1] is on record as greater than 32 µg/mL. Further, the IC50 in data set [2] is greater than 32 µg/mL. The compound further yielded an MIC90 in data set [3] greater than 32 µg/mL.
The compound `Fc1cccc(-c2cnn3c(NCc4ccccn4)cc(-c4ccccc4)nc23)c1` [Compound 14, 3-(3-Fluorophenyl)-5-phenyl-N-(pyridin-2-ylmethyl)pyrazolo[1,5-a]pyrimidin-7-amine] had a melting point of 170 to 172 °C. Also, in data set [1], the “MIC90 LORA” value is reported as greater than 32 µg/mL. Also, the IC50 in data set [2] was greater than 32 µg/mL. The MIC90 in data set [3] was greater than 32 µg/mL.
Turning to `Cc1cccc(-c2cnn3c(NCc4ccccn4)cc(-c4ccccc4)nc23)c1` [Compound 15, 5-Phenyl-N-(pyridin-2-ylmethyl)-3-(m-tolyl)pyrazolo[1,5-a]pyrimidin-7-amine], the melting point lay within 172 to 174 °C. Besides, the “MIC90 LORA” value in data set [1] is listed as 30 µg/mL (≈ 76.6 µM). Besides, the IC50 in data set [2] is greater than 32 µg/mL. The MIC90 in data set [3] was greater than 32 µg/mL.
The compound `Fc1ccccc1-c1cnn2c(NCc3ccccn3)cc(-c3ccccc3)nc12` [Compound 11, 3-(2-Fluorophenyl)-5-phenyl-N-(pyridin-2-ylmethyl)pyrazolo[1,5-a]pyrimidin-7-amine] registered a melting point of 176 to 178 °C. In addition, the “MIC90 LORA” value in data set [1] is greater than 32 µg/mL. For the same compound, the IC50 in data set [2] was greater than 32 µg/mL. The compound also came in with an MIC90 in data set [3] greater than 32 µg/mL.
`Fc1ccc(-c2cnn3c(NCc4cc(N5CCOCC5)ccn4)cc(-c4ccccc4)nc23)cc1` [Compound 66, 3-(4-Fluorophenyl)-N-((4-morpholinopyridin-2-yl)methyl)-5-phenylpyrazolo[1,5-a]pyrimidin-7-amine] came in with a melting point of 208 °C. Further, the “MIC90 LORA” value in data set [1] stood at 0.98 µg/mL (≈ 2.04 µM). Further, in data set [2], the IC50 is greater than 32 µg/mL. Besides, in data set [3], the MIC90 turned out to be 0.06 µg/mL (≈ 0.125 µM).
In the case of `CN(C)c1cccc(CNc2cc(-c3ccccc3)nc3c(-c4ccc(F)cc4)cnn23)n1` [Compound 49, N-((6-(Dimethylamino)pyridin-2-yl)methyl)-3-(4-fluorophenyl)-5-phenylpyrazolo[1,5-a]pyrimidin-7-amine], the melting point fell in the range of 151 to 153 °C. Moreover, in data set [1], the “MIC90 LORA” value is 0.40 µg/mL (≈ 0.912 µM). The compound also gave an IC50 in data set [2] greater than 32 µg/mL. The compound also gave an MIC90 in data set [3] of 1.39 µg/mL (≈ 3.17 µM).
As for `CN(C)CCCc1ccc(CNc2cc(-c3ccccc3)nc3c(-c4ccc(F)cc4)cnn23)nc1` [Compound 56, N-((5-(3-(dimethylamino)propyl)pyridin-2-yl)methyl)-3-(4-fluorophenyl)-5-phenylpyrazolo[1,5-a]pyrimidin-7-amine], the “MIC90 LORA” value in data set [1] stood at 6.1 µg/mL (≈ 12.7 µM). The compound further registered an IC50 in data set [2] of 20.3 µg/mL (≈ 42.2 µM). The compound also displayed an MIC90 in data set [3] of 5.8 µg/mL (≈ 12.1 µM).
On to `Fc1ccc(-c2cnn3c(NCc4ccccn4)cc(C4=CCCC4)nc23)cc1` [Compound 26, 5-(Cyclopent-1-en-1-yl)-3-(4-fluorophenyl)-N-(pyridin-2-ylmethyl)pyrazolo[1,5-a]pyrimidin-7-amine], for which the “MIC90 LORA” value in data set [1] was 0.23 µg/mL (≈ 0.597 µM). The CLint scaled at 1 μM in data set [4] (human, microsomes) is 32 mL/min/kg; in data set [5], 140 mL/min/kg. Moreover, the half-life at 1 μM is 39 min in data set [4] (human, microsomes); less than 85 min in data set [4] (setting [6]); 39 min in data set [5]. Further, the microsomal CLint at 1 μM in data set [4] and in data set [5] was 35 µL/min/mg throughout. The compound further registered an IC50 in data set [2] greater than 32 µg/mL. This compound showed an MIC90 in data set [3] of 0.89 µg/mL (≈ 2.31 µM).
Take `COc1cccc(-c2cc(NCc3ccccn3)n3ncc(-c4ccc(F)cc4)c3n2)c1` [Compound 31, 3-(4-Fluorophenyl)-5-(3-methoxyphenyl)-N-(pyridin-2-ylmethyl)pyrazolo[1,5-a]pyrimidin-7-amine]: the “MIC90 LORA” value in data set [1] stood at 1.7 µg/mL (≈ 4 µM). The same compound displayed an IC50 in data set [2] greater than 32 µg/mL. This compound also returned an MIC90 in data set [3] of 3.9 µg/mL (≈ 9.17 µM).
As to `Fc1ccc(-c2cnn3c(NCc4ccccn4)cc(C4=CCCCC4)nc23)cc1` [Compound 27, 5-(Cyclohex-1-en-1-yl)-3-(4-fluorophenyl)-N-(pyridin-2-ylmethyl)pyrazolo[1,5-a]pyrimidin-7-amine], the “MIC90 LORA” value in data set [1] is on record as 0.44 µg/mL (≈ 1.1 µM). Besides, the intrinsic clearance (CLint scaled) at 1 μM stood at 17 mL/min/kg in data set [4] (human, microsomes) and 120 mL/min/kg in data set [5]. Also, the half-life at 1 μM in data set [4] (human, microsomes) is 75 min; in data set [4] (setting [6]), less than 85 min; in data set [5], 49 min. In addition, the values for the microsomal CLint at 1 μM in data set [4] and in data set [5] were 19 µL/min/mg and 30 µL/min/mg, respectively. Also, the concentration for half-maximal inhibition (IC50) in data set [2] was greater than 32 µg/mL. For the same compound, the MIC90 in data set [3] is 0.62 µg/mL (≈ 1.55 µM).
On to `COc1ccccc1-c1cc(NCc2ccccn2)n2ncc(-c3ccc(F)cc3)c2n1` [Compound 29, 3-(4-Fluorophenyl)-5-(2-methoxyphenyl)-N-(pyridin-2-ylmethyl)pyrazolo[1,5-a]pyrimidin-7-amine], for which the “MIC90 LORA” value in data set [1] is 9.0 µg/mL (≈ 21.2 µM). In addition, the IC50 in data set [2] is greater than 32 µg/mL. Also, in data set [3], the MIC90 stood at 13.3 µg/mL (≈ 31.3 µM).
For `Fc1ccc(-c2cnn3c(NCc4ccccn4)cc(-c4ccc(C(F)(F)F)cc4)nc23)cc1` [Compound 37, 3-(4-Fluorophenyl)-N-(pyridin-2-ylmethyl)-5-(4-(trifluoromethyl)phenyl)pyrazolo[1,5-a]pyrimidin-7-amine] the same measures were 3.6 µg/mL (≈ 7.77 µM), greater than 32 µg/mL and 3.8 µg/mL (≈ 8.2 µM).
For the compound `Fc1ccc(-c2cnn3c(NCc4ccccn4)cc(-c4ccncc4)nc23)cc1` [Compound 40, 3-(4-Fluorophenyl)-N-(pyridin-2-ylmethyl)-5-(pyridin-4-yl)pyrazolo[1,5-a]pyrimidin-7-amine], the “MIC90 LORA” value in data set [1] is given as 28 µg/mL (≈ 70.6 µM). Further, in data set [2], the IC50 is greater than 32 µg/mL. The compound further displayed an MIC90 in data set [3] greater than 32 µg/mL.
On to “N-((4-(2-(Dimethylamino)ethoxy)pyridin-2-yl)methyl)-3-(4-fluorophenyl)-5-phenylpyrazolo[1,5-a]pyrimidin-7-amine [Compound 58]”, for which the “MIC90 LORA” value in data set [1] turned out to be 4.1 µg/mL. In data set [2], the “IC50 VERO” value is greater than 32 µg/mL. For the same compound, the “MIC90 MABA” value in data set [3] is given as 4.7 µg/mL.
Regarding `Fc1ccc(-c2cnn3c(NCc4ccccn4)ccnc23)cc1` [Compound 22, 3-(4-Fluorophenyl)-N-(pyridin-2-ylmethyl)pyrazolo[1,5-a]pyrimidin-7-amine], the “MIC90 LORA” value in data set [1] is on record as 0.39 µg/mL (≈ 1.22 µM). The compound further registered an IC50 in data set [2] greater than 32 µg/mL. This compound gave an MIC90 in data set [3] of 0.89 µg/mL (≈ 2.79 µM).
With `CN(C)CC#Cc1ccc(CNc2cc(-c3ccccc3)nc3c(-c4ccc(F)cc4)cnn23)nc1` [Compound 55, N-((5-(3-(Dimethylamino)prop-1-yn-1-yl)pyridin-2-yl)methyl)-3-(4-fluorophenyl)-5-phenylpyrazolo[1,5-a]pyrimidin-7-amine], the “MIC90 LORA” value in data set [1] was found to be 5.5 µg/mL (≈ 11.5 µM). Moreover, in data set [4] (human, microsomes), the intrinsic clearance (CLint scaled) at 1 μM is less than 8.6 mL/min/kg and the half-life at 1 μM was greater than 145 min. Moreover, in data set [4], the microsomal CLint at 1 μM is less than 9.6 µL/min/mg. The compound also returned an IC50 in data set [2] greater than 32 µg/mL. Besides, the MIC90 in data set [3] was 1.9 µg/mL (≈ 3.99 µM). Further, in data set [5], the CLint scaled at 1 μM is 121 mL/min/kg, the half-life at 1 μM turned out to be 45.4 min and the microsomal CLint at 1 μM is 31 µL/min/mg.
With `Cc1ccc(-c2cc(NCc3ccccn3)n3ncc(-c4ccc(F)cc4)c3n2)cc1` [Compound 33, 3-(4-Fluorophenyl)-N-(pyridin-2-ylmethyl)-5-(p-tolyl)pyrazolo[1,5-a]pyrimidin-7-amine], the “MIC90 LORA” value in data set [1] was determined as 5.0 µg/mL (≈ 12.2 µM). In data set [2], the 50% inhibitory concentration (IC50) was greater than 32 µg/mL. The compound also gave an MIC90 in data set [3] of 3.7 µg/mL (≈ 9.04 µM).
As to `CN(C)CCOc1ccc(CNc2cc(-c3ccccc3)nc3c(-c4ccc(F)cc4)cnn23)nc1` [Compound 57, N-((5-(2-(Dimethylamino)ethoxy)pyridin-2-yl)methyl)-3-(4-fluorophenyl)-5-phenylpyrazolo[1,5-a]pyrimidin-7-amine], the “MIC90 LORA” value in data set [1] amounted to 1.9 µg/mL (≈ 3.94 µM). Moreover, the IC50 in data set [2] came out at 24 µg/mL (≈ 49.7 µM). Also, the MIC90 in data set [3] came to 3.6 µg/mL (≈ 7.46 µM).
“3-(4-Fluorophenyl)-N-((6-(4-methylpiperidin-1-yl)pyridin-2-yl)methyl)-5-phenylpyrazolo[1,5-a]pyrimidin-7-amine [Compound 51]”: the “MIC90 LORA” value in data set [1] was 0.85 µg/mL. For the same compound, the “IC50 VERO” value in data set [2] amounted to 11.8 µg/mL. The “MIC90 MABA” value in data set [3] was 0.94 µg/mL.
Take `Fc1ccc(-c2cc(NCc3ccccn3)n3ncc(-c4ccc(F)cc4)c3n2)cc1` [Compound 32, 3,5-Bis(4-fluorophenyl)-N-(pyridin-2-ylmethyl)pyrazolo[1,5-a]pyrimidin-7-amine]: in data set [1], the “MIC90 LORA” value is on record as 0.22 µg/mL (≈ 0.532 µM). Besides, the IC50 in data set [2] was greater than 32 µg/mL. The MIC90 in data set [3] was 3 µg/mL (≈ 7.26 µM).
In the case of `Fc1ccc(-c2cnn3c(NCc4ccccn4)cc(-c4ccco4)nc23)cc1` [Compound 43, 3-(4-Fluorophenyl)-5-(furan-2-yl)-N-(pyridin-2-ylmethyl)pyrazolo[1,5-a]pyrimidin-7-amine], the “MIC90 LORA” value in data set [1] is less than 0.13 µg/mL. Further, the IC50 in data set [2] is greater than 32 µg/mL. This compound also returned an MIC90 in data set [3] of 0.96 µg/mL (≈ 2.49 µM).

Source of the values: publication PMC9506485, “Synthesis and Structure–Activity Relationships for the Anti-Mycobacterial Activity of 3-Phenyl-N-(Pyridin-2-ylmethyl)Pyrazolo[1,5-a]Pyrimidin-7-Amines” (Pharmaceuticals, 2022).
